Reference: patent publication US5593970A, “Heterocyclic anthracycline analogs” (priority 1994, dated 1997)
Structures can show the parent of a compound that is named as a salt.

Legend:
MCF7 = assay: Soft agar colony formation disk diffusion assay; assay type: cell-based, human
Procedure, shortened: (§1)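 Anti-clonogenic effect assessed by disk diffusion in two-layer Noble agar, cells plated separately per line at an optimised density. After 10–20 days incubation, the inhibition zone around the compound disk was measured microscopically.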

MCF7/ADR = assay: Soft agar colony formation disk diffusion assay; assay type: cell-based, human
Procedure, shortened: as §1

LS180 = assay: Soft agar colony formation disk diffusion assay; assay type: cell-based, human
Procedure, shortened: as §1

P388 = assay: Soft agar colony formation disk diffusion assay; assay type: cell-based, murine
Procedure, shortened: (§2)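 Tumour cells plated in upper 0.4% Noble agar layer in RPMI-1066; bottom layer 0.8% Noble agar with Tryptic Soy Broth. Drug in DMSO/water dried onto a 6.5 mm disk placed on the cell layer. Incubated 10-20 days; anti-clonogenic activity taken as inhibition zone width.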

P388/ADR = assay: Soft agar colony formation disk diffusion assay; assay type: cell-based, murine
Procedure, shortened: as §2

M5076 = assay: Soft agar colony formation disk diffusion assay; assay type: cell-based, murine
Procedure, shortened: as §2

B16 = assay: Soft agar colony formation disk diffusion assay; assay type: cell-based, murine
Procedure, shortened: as §2

LL = assay: Soft agar colony formation disk diffusion assay; assay type: cell-based, murine
Procedure, shortened: as §2

SKVLB = assay: Microculture tetrazolium assay; assay type: cell-based; conditions: for VLB/OV3: IC50 ratio SKVLB/SKOV3; for IC50: SKVLB, read-out: IC50
MATB/ADR = assay: Soft agar colony formation disk diffusion assay; assay type: cell-based, rat
Procedure, shortened: as §2

MATB.WT = assay: Soft agar colony formation disk diffusion assay; assay type: cell-based, rat
Procedure, shortened: as §2

LOX = assay: Microculture tetrazolium assay; assay type: cell-based; conditions: read-out: IC50

Molecule	zone of inhibition (MCF7; 100 μg/DISK) [Zone Units]	zone of inhibition (MCF7/ADR; 10 μg/DISK) [Zone Units]	zone of inhibition (MCF7/ADR; 100 μg/DISK) [Zone Units]	zone of inhibition (LS180; 10 μg/DISK) [Zone Units]	zone of inhibition (LS180; 100 μg/DISK) [Zone Units]	zone of inhibition (P388; 10 μg/DISK) [Zone Units]	zone of inhibition (P388; 100 μg/DISK) [Zone Units]	zone of inhibition (P388/ADR; 10 μg/DISK) [Zone Units]	zone of inhibition (P388/ADR; 100 μg/DISK) [Zone Units]	zone of inhibition (M5076; 10 μg/DISK) [Zone Units]	zone of inhibition (M5076; 100 μg/DISK) [Zone Units]	zone of inhibition (B16; 10 μg/DISK) [Zone Units]	zone of inhibition (B16; 100 μg/DISK) [Zone Units]	zone of inhibition (LL; 100 μg/DISK) [Zone Units]	VLB/OV3 (SKVLB)	IC50 (SKVLB) [µM]	zone of inhibition (MATB/ADR; 10 μg/DISK) [Zone Units]	zone of inhibition (MATB/ADR; 100 μg/DISK) [Zone Units]	zone of inhibition (MATB.WT; 10 μg/DISK) [Zone Units]	zone of inhibition (MATB.WT; 100 μg/DISK) [Zone Units]	further results
COC(=O)[C@@H]1CC2=C(C(=O)c3c(cc4ccccc4c3O)C2=O)[C@@H](O[C@H]2C[C@H](NC(=O)C(F)(F)F)[C@H](O)[C@H](C)O2)O1 [BCH-691, (1'S,1R,3S)-Methyl-{11-hydroxy-1-(2',3',6'-trideoxy-3'-trifluoroacetamido-4'-hydroxy-L-lyxoheoxpyranose)-5,12-dioxo-3,4,5,12-tetrahydroanthraceno[2,3-c]pyran-3-yl}formate]	417.5 ± 99.7	115.5 ± 9.1	213.5 ± 43.1	148.5 ± 4.9	287.0 ± 80.3	100.5 ± 50.0	200.2 ± 50.0	50.0 ± 10.0	98.0 ± 15.0	120.0 ± 28.8	220.0 ± 50.8	114.0 ± 30.2	250.0 ± 58.0	180.0 ± 120.0	1.11	1.41	0	200.0 ± 95.0	120.0 ± 50.5	380.0 ± 120.0	zone of inhibition (MCF7; 10 μg/DISK): 186.5 ± 4.9 Zone Units; zone of inhibition (LL; 10 μg/DISK): 50.6 ± 25.5 Zone Units; IC50 (LOX): 1.37 µM
3-carbomethoxy-6-hydroxy-1,2,3,4-tetrahydro-(2-sulfur)naphthacene-5,12-dione and 3-carbomethoxy-11-hydroxy-1,2,3,4-tetrahydro(2-sulfur)naphthacene-5,12-dione [BCH-693]	67.1 ± 34.5	24.4 ± 17.2	67.1 ± 25.8	0	39.6 ± 4.3	120.0 ± 0.0	400.0	20.0 ± 0.0	76.5 ± 21.9	27.4 ± 4.3	51.8 ± 12.9	0	27.4 ± 4.3	45.7 ± 21.5	1.06	44.2	0	67.1 ± 8.6	0	42.7 ± 8.8	zone of inhibition (MCF7; 10 μg/DISK): 0 Zone Units; IC50 (LOX): 48 µM
3-(2-hydroxy)aceto-6-hydroxy-1,2,3,4-tetrahydro-(2-oxygen)naphthacene-5,12-dione and 3-(2-hydroxy)aceto-11-hydroxy-1,2,3,4-tetrahydro-(2-oxygen)naphthacene-5,12-dione [BCH-694]	149.4 ± 12.9	0	161.5 ± 13.4	48.8 ± 17.2	153.2 ± 1.0	67.1 ± 8.6	115.9 ± 94.8	6.1 ± 8.6	39.6 ± 12.9	27.4 ± 4.3	137.2 ± 99.2	0	128.0 ± 26.0	30.5 ± 8.6	2.18	17.9	27.4 ± 4.3	213.5 ± 43.1	76.2 ± 2.5	207.0 ± 33.9	zone of inhibition (MCF7; 10 μg/DISK): 61.0 ± 0.0 Zone Units; IC50 (LOX): 15 µM
COC(=O)[C@H]1CC2=C(C(=O)c3c(c(OC)c4ccccc4c3O)C2=O)[C@H](O[C@H]2C[C@H](NC(=O)C(F)(F)F)[C@H](O)[C@H](C)O2)O1 (mixture of isomers) [BCH-675, (1'S,1S,3R) and 1'S,1R,3S) Methyl(11-hydroxy-6-methoxy-1-[2',3',6'-trideoxy-3-trifluoroacetamido-4'-hydroxy-L-lyxohexopyranose]-5,12-dioxo-3,4,5,12-tetrahydroanthra-ceno[2,3-c]pyran-3-yl) formate]	30.5 ± 10.5	0	26.3 ± 14.0	0	148.4 ± 31.3	0	152.5 ± 30.5	10.1 ± 9.3	146.3 ± 32.3	0	142.0 ± 35.2	0	0	264.0 ± 38.0	0.43	3.97	22.3 ± 3.5	59.4 ± 8.6	0	32.5 ± 9.3	zone of inhibition (MCF7; 10 μg/DISK): 0 Zone Units; zone of inhibition (LL; 10 μg/DISK): 75.2 ± 40.5 Zone Units; IC50 (LOX): 4.29 µM
CCOC(=O)C1CC2=C(CO1)C(=O)c1c(cc3ccccc3c1O)C2=O (centres unmarked) [BCH-651, Ethyl(6 and 11 hydroxy-5,12-dioxo-3,4,5,12-tetrahydro-anthraceno[2,3-c]pyran-3-yl)]formate]	115.9 ± 8.6	10.0 ± 5.0	131.1 ± 30.1	0	76.2 ± 21.5	45.7 ± 12.9	294.5 ± 101.1	10.0 ± 0.0	30.5 ± 8.6	15.2 ± 4.3	51.3 ± 43.3	0	27.5 ± 13.4	27.4 ± 4.3	1.13	23.6	0	100.0	0	36.6 ± 8.6	IC50 (LOX): 22.1 µM
CCOC(=O)C1CC2=C(CO1)C(=O)c1c(c(O)c3ccccc3c1OC(C)=O)C2=O (centres unmarked) [BCH-654, Ethyl[11-acetoxy-6-hydroxy-5,12-dioxo-3,4,5,12-tetrahydroanthraceno(2,3-c)pyran-3-yl]formate]	115.9 ± 8.6	0	155.6 ± 12.7	24.4 ± 8.6	158.5 ± 9.1	0	0	0	0	0	0	0	137.4 ± 21.8	0	0.58	57.1	0	134.3 ± 17.3	0	152.5 ± 25.8	zone of inhibition (MCF7; 10 μg/DISK): 0 Zone Units; IC50 (LOX): 70.5 µM
CCOC(=O)[C@@H]1CC2=C(C(=O)c3cc4ccccc4c(OC(C)=O)c3C2=O)[C@@H](O)O1 (mixture of isomers) [BCH-660, (1S,3S) and (1R,3R)-Ethyl-[6-acetoxy-1-hydroxy-5,12-dioxo-3,4,5,12-tetrahydroanthraceno (2,3-c)pyran-3-yl]formate]	82.3 ± 12.9	9.1 ± 4.3	109.8 ± 10.0	15.0 ± 4.2	76.0 ± 4.2	18.3 ± 8.6	54.9 ± 0.0	6.1 ± 8.6	54.9 ± 8.6	24.4 ± 8.6	61.0 ± 0.0	6.1 ± 8.6	85.4 ± 8.6	55.0 ± 8.4	1.22	6.49	24.4 ± 8.6	161.5 ± 30.4	137.2 ± 21.5	137.2 ± 21.5	zone of inhibition (MCF7; 10 μg/DISK): 27.4 ± 4.3 Zone Units; IC50 (LOX): 9.84 µM
